Source: paper PMC5843908, “Detection of PRMT1 inhibitors with stopped flow fluorescence” (Signal Transduction and Targeted Therapy, 2018)
Where two headings read alike, the source gives them in different places.

Columns and labels:
PRMT1 [1] = molecular target: T1, PRMT1 (Homo sapiens, UniProt Q99873); assay: Stopped flow fluorescence assay of PRMT1 inhibition ([PRMT1] 0.2 µM, [SAM] 3.5 µM, [H4FL] 0.4 µM); type: biochemical;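 note: Stopped-flow traces of fluorescent H4FL peptide quenched on binding PRMT1 and restored on release, recorded 900 s, averaged over repeated drives and fit to a double-exponential model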
T1 sequence (Q99873 29-371): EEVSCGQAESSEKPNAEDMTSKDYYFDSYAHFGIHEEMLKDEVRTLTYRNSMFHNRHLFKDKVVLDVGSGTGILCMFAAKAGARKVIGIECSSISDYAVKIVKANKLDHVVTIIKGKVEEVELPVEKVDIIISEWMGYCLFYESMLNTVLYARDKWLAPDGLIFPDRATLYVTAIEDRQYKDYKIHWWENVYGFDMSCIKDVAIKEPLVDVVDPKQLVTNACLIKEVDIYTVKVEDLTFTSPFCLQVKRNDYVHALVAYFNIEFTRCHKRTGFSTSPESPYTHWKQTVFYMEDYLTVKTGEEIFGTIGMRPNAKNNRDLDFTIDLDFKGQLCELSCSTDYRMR
Description: To obtain the IC50 of a specific inhibitor, the relative activities of the enzyme in presence of different concentrations of the inhibitor are required (equation 1).[37] […] By adding different concentrations of the inhibitor to the reaction mixture, the relative activity of the enzyme can be obtained by normalizing K to the reaction rate without the inhibitor, and then calculate the IC50 value using equation 1. In our stopped flow fluorescence assay, the reaction rate of Phase I and Phase II can be obtained by approximating and deriving the double-exponential equation (equation 2). In Phase I, during a very short period of time (where t is small), the curve is nearly linear, and the exponential equation can be approximately described as F1 = a · (−k1) · t. Therefore, the derivation of F1 equals –k1∙a, which is the slope of Phase I. Similarly, the curve of Phase II at early stage can be approximately described as F2 = b · (−k2) · t. This derivation of F2 equals –k2∙b, which is the slope of Phase II. The slopes at various inhibitor concentrations, normalized to the slope in the absence of inhibitor, can be used to obtain the corresponding relative enzyme activity from which the potency value (IC50) of the inhibitor can be calculated with equation 1.
(§1) In a stopped flow fluorescence assay, the binding of H4FL to PRMT1 (or the PRMT1—cofactor complex) quenches the peptide fluorescence, while release of the peptide restores the fluorescence. […] The widths of the entrance and exit slits of the monochromator were set to 0.5 mm. An equal volume of samples from two syringes was driven into the observation cell for mixing measurements. The H4FL concentration in all experiments was 0.4 μM. […] The fluorescent signal was recorded for 900 seconds, with 10,000 data points in total. Data from four to six drives were collected and averaged for each curve.
After averaging the shot data, the association time courses were fitted to a double-exponential function (equation 2) using GraphPad Prism (CA, USA). […] F is the fluorescence intensity at time t, k1, and k2 are the rate constants for Phase I and Phase II, a is the amplitude of the fluorescence change for k1, and b is the amplitude of the fluorescence change for k2. Simulation curves based on the values of a, b, k1, and k2 at fixed c = 1 were produced using Matlab. The IC50 value of inhibitors is determined by equation 1 using GraphPad Prism (CA, USA).

PRMT1 [2] = settings: read-out: Km of SAM on H4FL; cited from earlier work
PRMT1 [3] = molecular target: T1, PRMT1
Description: We plotted the values of a · k1 or −b · k2 against the SAM concentration (Fig. 3c, d).
as §1
After averaging the shot data, the association time courses were fitted to a double-exponential function (equation 2) using GraphPad Prism (CA, USA). […] F is the fluorescence intensity at time t, k1, and k2 are the rate constants for Phase I and Phase II, a is the amplitude of the fluorescence change for k1, and b is the amplitude of the fluorescence change for k2. Simulation curves based on the values of a, b, k1, and k2 at fixed c = 1 were produced using Matlab.

## Nc1ncnc2c1ncn2[C@@H]1O[C@H](CSCC[C@H](N)C(=O)O)[C@@H](O)[C@H]1O [SAH, S-adenosyl homocysteine]
PRMT1 [1]; [SAH] 0.1 µM
  -b·k2 (slope of Phase II): 0.000677 ± 1.35e-06 s⁻¹
  a (amplitude, Phase I): 0.2027 ± 4.00E-04
  a·k1 (slope of Phase I): 0.0122 ± 4.9e-05 s⁻¹
  b (amplitude, Phase II): -0.2201 ± 1.26E-04
  k1 (rate constant, Phase I): 0.05995 ± 2.11E-04 s^-1
  k2 (rate constant, Phase II): 0.003078 ± 5.86E-06 s^-1
PRMT1 [1]; [SAH] 0.25 µM
  -b·k2 (slope of Phase II): 0.000561 ± 1.3e-06 s⁻¹
  a (amplitude, Phase I): 0.2214 ± 4.39E-04
  a·k1 (slope of Phase I): 0.0144 ± 5.59e-05 s⁻¹
  b (amplitude, Phase II): -0.2306 ± 1.33E-04
  k1 (rate constant, Phase I): 0.06487 ± 2.18E-04 s^-1
  k2 (rate constant, Phase II): 0.002434 ± 5.47E-06 s^-1
PRMT1 [1]; [SAH] 0.5 µM
  -b·k2 (slope of Phase II): 0.000352 ± 1.25e-06 s⁻¹
  a (amplitude, Phase I): 0.2658 ± 3.49E-04
  b (amplitude, Phase II): -0.2629 ± 3.89E-04
  k1 (rate constant, Phase I): 0.06324 ± 1.36E-04 s^-1
  k2 (rate constant, Phase II): 0.00134 ± 4.32E-06 s^-1
PRMT1 [1]; [SAH] 1 µM
  -b·k2 (slope of Phase II): 0.000234 ± 1.38e-06 s⁻¹
  a (amplitude, Phase I): 0.2726 ± 3.65E-04
  a·k1 (slope of Phase I): 0.0186 ± 4.67e-05 s⁻¹
  b (amplitude, Phase II): -0.2134 ± 6.03E-04
  k1 (rate constant, Phase I): 0.06815 ± 1.45E-04 s^-1
  k2 (rate constant, Phase II): 0.001095 ± 5.70E-06 s^-1
PRMT1 [1]; [SAH] 2.5 µM
  -b·k2 (slope of Phase II): 0.00011 ± 2.16e-06 s⁻¹
  a (amplitude, Phase I): 0.2961 ± 3.73E-04
  a·k1 (slope of Phase I): 0.0213 ± 4.93e-05 s⁻¹
  b (amplitude, Phase II): -0.1862 ± 2.16E-03
  k1 (rate constant, Phase I): 0.07177 ± 1.40E-04 s^-1
  k2 (rate constant, Phase II): 0.0005933 ± 9.36E-06 s^-1
PRMT1 [1]; [SAH] 5 µM
  -b·k2 (slope of Phase II): 5.14e-05 ± 8.08e-06 s⁻¹
  a (amplitude, Phase I): 0.2962 ± 3.74E-04
  b (amplitude, Phase II): -0.3000 ± 3.18E-02
  k1 (rate constant, Phase I): 0.05757 ± 1.17E-04 s^-1
  k2 (rate constant, Phase II): 0.0001714 ± 1.98E-05 s^-1
PRMT1 [1]; [SAH] 10 µM
  -b·k2 (slope of Phase II): 2.22e-05 ± 2.71e-05 s⁻¹
  a (amplitude, Phase I): 0.2774 ± 5.02E-04
  b (amplitude, Phase II): -0.2999 ± 2.24E-01
  increasing trend of Phase II: almost abolished
  k1 (rate constant, Phase I): 0.05889 ± 1.70E-04 s^-1
  k2 (rate constant, Phase II): 7.42e-05 ± 5.74e-05 s⁻¹

## C[S+](CC[C@H](N)C(=O)[O-])C[C@H]1O[C@@H](n2cnc3c(N)ncnc32)[C@H](O)[C@@H]1O (some centres unmarked) [SAM, S-adenosylmethionine]
PRMT1 [2]
  Km: 3.1 ± 0.46 µM
PRMT1 [3]; [SAM] 1.5 µM
  -b·k2 (slope of Phase II): 0.0002 ± 9.72e-07 s⁻¹
  a (amplitude, Phase I): 0.0482 ± 2.31E-04
  a·k1 (slope of Phase I): 0.00212 ± 2.2e-05 s⁻¹
  b (amplitude, Phase II): -0.07363 ± 8.97E-05
  k1 (rate constant, Phase I): 0.04402 ± 4.06E-04 s^-1
  k2 (rate constant, Phase II): 0.002713 ± 1.28E-05 s^-1
PRMT1 [3]; [SAM] 3.5 µM
  -b·k2 (slope of Phase II): 0.000878 ± 2.58e-06 s⁻¹
  a (amplitude, Phase I): 0.0846 ± 3.83E-04
  a·k1 (slope of Phase I): 0.00678 ± 6.58e-05 s⁻¹
  b (amplitude, Phase II): -0.1161 ± 2.14E-04
  k1 (rate constant, Phase I): 0.08016 ± 6.88E-04 s^-1
  k2 (rate constant, Phase II): 0.007565 ± 1.73E-05 s^-1
PRMT1 [3]; [SAM] 7.5 µM
  -b·k2 (slope of Phase II): 0.00141 ± 4.46e-06 s⁻¹
  a (amplitude, Phase I): 0.1529 ± 1.79E-03
  a·k1 (slope of Phase I): 0.0272 ± 0.000547 s⁻¹
  b (amplitude, Phase II): -0.2054 ± 3.40E-04
  k1 (rate constant, Phase I): 0.1778 ± 2.91E-03 s^-1
  k2 (rate constant, Phase II): 0.006848 ± 1.85E-05 s^-1
PRMT1 [3]; [SAM] 15 µM
  -b·k2 (slope of Phase II): 0.00313 ± 1.01e-05 s⁻¹
  a (amplitude, Phase I): 0.1992 ± 2.65E-03
  a·k1 (slope of Phase I): 0.0493 ± 0.00109 s⁻¹
  b (amplitude, Phase II): -0.2664 ± 5.21E-04
  k1 (rate constant, Phase I): 0.2476 ± 4.40E-03 s^-1
  k2 (rate constant, Phase II): 0.01175 ± 3.03E-05 s^-1

## Nc1ncnc2c1ncn2[C@@H]1O[C@H](C[C@@H](N)CC[C@H](N)C(=O)O)[C@@H](O)[C@H]1O [sinefungin]
PRMT1 [1]; [sinefungin] 0.0375 µM
  -b·k2 (slope of Phase II): 0.000574 ± 1.23e-06 s⁻¹
  a (amplitude, Phase I): 0.1645 ± 3.77E-04
  a·k1 (slope of Phase I): 0.0107 ± 4.96e-05 s⁻¹
  b (amplitude, Phase II): -0.1699 ± 1.17E-04
  k1 (rate constant, Phase I): 0.0653 ± 2.62E-04 s^-1
  k2 (rate constant, Phase II): 0.00338 ± 6.86e-06 s⁻¹
PRMT1 [1]; [sinefungin] 0.075 µM
  -b·k2 (slope of Phase II): 0.00042 ± 1.32e-06 s⁻¹
  a (amplitude, Phase I): 0.2064 ± 3.83E-04
  a·k1 (slope of Phase I): 0.0115 ± 4.27e-05 s⁻¹
  b (amplitude, Phase II): -0.2170 ± 1.94E-04
  k1 (rate constant, Phase I): 0.05564 ± 1.79E-04 s^-1
  k2 (rate constant, Phase II): 0.00194 ± 5.83e-06 s⁻¹
PRMT1 [1]; [sinefungin] 0.15 µM
  -b·k2 (slope of Phase II): 0.000351 ± 1.48e-06 s⁻¹
  a (amplitude, Phase I): 0.2215 ± 4.17E-04
  a·k1 (slope of Phase I): 0.0126 ± 4.69e-05 s⁻¹
  b (amplitude, Phase II): -0.2165 ± 3.17E-04
  k1 (rate constant, Phase I): 0.05703 ± 1.83E-04 s^-1
  k2 (rate constant, Phase II): 0.00162 ± 6.43e-06 s⁻¹
PRMT1 [1]; [sinefungin] 0.3 µM
  -b·k2 (slope of Phase II): 0.00021 ± 1.94e-06 s⁻¹
  a (amplitude, Phase I): 0.2200 ± 4.51E-04
  a·k1 (slope of Phase I): 0.0118 ± 4.79e-05 s⁻¹
  b (amplitude, Phase II): -0.1711 ± 6.89E-04
  k1 (rate constant, Phase I): 0.05374 ± 1.88E-04 s^-1
  k2 (rate constant, Phase II): 0.00123 ± 1.02e-05 s⁻¹
PRMT1 [1]; [sinefungin] 0.75 µM
  -b·k2 (slope of Phase II): 0.000123 ± 2.15e-06 s⁻¹
  a (amplitude, Phase I): 0.2668 ± 5.02E-04
  a·k1 (slope of Phase I): 0.0149 ± 5.48e-05 s⁻¹
  b (amplitude, Phase II): -0.1045 ± 8.19E-04
  k1 (rate constant, Phase I): 0.05576 ± 1.77E-04 s^-1
  k2 (rate constant, Phase II): 0.00118 ± 1.83e-05 s⁻¹
PRMT1 [1]; [sinefungin] 1.5 µM
  -b·k2 (slope of Phase II): 7.22e-05 ± 5.34e-06 s⁻¹
  a (amplitude, Phase I): 0.287 ± 5.51E-04
  a·k1 (slope of Phase I): 0.0164 ± 6.01e-05 s⁻¹
  b (amplitude, Phase II): -0.1776 ± 8.27E-03
  k1 (rate constant, Phase I): 0.05722 ± 1.79E-04 s^-1
  k2 (rate constant, Phase II): 0.000406 ± 2.33e-05 s⁻¹
PRMT1 [1]; [sinefungin] 3 µM
  -b·k2 (slope of Phase II): 4.12e-05 ± 0.000152 s⁻¹
  a (amplitude, Phase I): 0.2925 ± 5.44E-04
  a·k1 (slope of Phase I): 0.0166 ± 5.83e-05 s⁻¹
  b (amplitude, Phase II): -4.517
  k1 (rate constant, Phase I): 0.05659 ± 1.69E-04 s^-1
  k2 (rate constant, Phase II): 9.13e-06 ± 3.36e-05 s⁻¹
PRMT1 [1]; [sinefungin] 7.5 µM
  -b·k2 (slope of Phase II): 1.42e-05 ± 0.000372 s⁻¹
  a (amplitude, Phase I): 0.2481 ± 5.15E-04
  a·k1 (slope of Phase I): 0.0148 ± 5.77e-05 s⁻¹
  b (amplitude, Phase II): -4.223
  k1 (rate constant, Phase I): 0.05968 ± 1.97E-04 s^-1
  k2 (rate constant, Phase II): 3.37e-06 ± 8.82e-05 s⁻¹
PRMT1 [1]; [sinefungin] 15 µM
  -b·k2 (slope of Phase II): 2.66e-06 ± 0.000274 s⁻¹
  a (amplitude, Phase I): 0.2592 ± 5.43E-04
  a·k1 (slope of Phase I): 0.0145 ± 5.77e-05 s⁻¹
  b (amplitude, Phase II): -0.5239
  k1 (rate constant, Phase I): 0.05599 ± 1.89E-04 s^-1
  k2 (rate constant, Phase II): 5.08e-06 ± 0.000523 s⁻¹
